In test [1] the test system is C. difficile ATCC BAA-1870. As to the kind of experiment: Initial screening of antiparasitic drugs, broth microdilution MIC. In kind it is cell-based, Clostridium difficile. On the procedure:
(§1) C. difficile strains were grown anaerobically on brain heart infusion supplemented (BHIS) agar plates at 37° C. for 48 hours. Afterwards, a bacterial solution equivalent to 0.5 McFarland standard was prepared and diluted in (BHIS) broth to achieve a bacterial concentration of about 5×10^5 CFU/mL. Drugs were added and serially diluted along the plates. Plates were then, incubated anaerobically at 37° C. for 48 hours. MICs reported in Table (1) are the minimum concentrations of the drugs that could completely suppress the visual growth of bacteria.

Test [2] concerns C. difficile ATCC 43255. The description is as above. In kind it is cell-based, Clostridium difficile. On the procedure: as §1
[3] abbreviates: Clostridioides difficile, ATCC43255.
Where [4] appears, read: Clostridioides difficile, initial screening, C. difficile ATCC BAA 1870, read-out: MIC.
The mark [5] stands for this setting: Clostridioides difficile, ATCC43255, initial screening, C. difficile ATCC 43255, read-out: MIC.

Where a name gives a salt, the structure may show the parent alone. Read-outs that look alike come from different tables or passages of the source.

As for `CCCSc1ccc2nc(NC(=O)OC)[nH]c2c1` [Albendazole, albendazole], the MIC in test [1] (Clostridioides difficile) and in test [2] (setting [3]) was more than 128 µg/mL in each case.
Take `CC(C)OC(=O)Nc1ccc2nc(-c3cscn3)[nH]c2c1` [Cambendazole, cambendazole]: the MIC is more than 128 µg/mL in test [1] (initial screening, C. difficile ATCC BAA 1870) and more than 128 µg/mL in test [2] (initial screening, C. difficile ATCC 43255).
Consider `COC(=O)Nc1nc2ccc(C(=O)c3ccccc3)cc2[nH]1` [Mebendazole, mebendazole], for which the MIC in test [1] (setting [4]) and in test [2] (setting [5]) was more than 128 µg/mL each time.
Consider `NC[C@@H]1O[C@H](O[C@H]2[C@@H](O)[C@H](O[C@@H]3[C@@H](O)[C@H](N)C[C@H](N)[C@H]3O[C@H]3O[C@H](CO)[C@@H](O)[C@H](O)[C@H]3N)O[C@@H]2CO)[C@H](N)[C@@H](O)[C@@H]1O` [Paromomycin, paromomycin sulfate], for which the minimum inhibitory concentration (MIC) in test [1] (setting [4]) and in test [2] (setting [5]) was more than 128 µg/mL in each case.
`O=C(C1CCCCC1)N1CC(=O)N2CCc3ccccc3C2C1` (stereo not drawn) [Praziquantel, praziquantel]: the MIC in test [1] (setting [4]) and in test [2] (setting [5]) was more than 128 µg/mL each time.
In the case of `CN1CCCN=C1/C=C/c1cccs1` [Pyrantel Pamoate, pyrantel pamoate], the MIC in test [1] (setting [4]) and in test [2] (setting [5]) was more than 128 µg/mL in each case.
In the case of `CCc1nc(N)nc(N)c1-c1ccc(Cl)cc1` [Pyrimethamine, pyrimethamine], the minimum inhibitory concentration (MIC) in test [1] (setting [4]) and in test [2] (setting [5]) was more than 128 µg/mL each time.
Consider `CCC[S+]([O-])c1ccc2[nH]c(NC(=O)OC)nc2c1` (stereo not drawn) [Ricobendazole, ricobendazole], for which the MIC in test [1] (Clostridioides difficile) and in test [2] (setting [3]) was more than 128 µg/mL throughout.
On to `c1ccc2[nH]c(-c3cscn3)nc2c1` [Thiabendazole, thiabendazole], for which the minimum inhibitory concentration (MIC) in test [1] (setting [4]) and in test [2] (setting [5]) was more than 128 µg/mL each time.

These data come from patent US11806342B2, “Diiodohydroxyquinoline for the treatment of clostridium difficile infection” (Purdue Research Foundation, priority 2019, dated 2023).
